Assay results reported in patent publication US20070161107A1, “Differentiation of human embryonic stem cells to cardiomyocytes” (priority 2003, published 2007).

How the values were obtained:
[1] = tested on: human fetal ventricular cells; experiment: Chronotropic response (beating rate) of cultured human fetal ventricular cells; assay type: cell-based
Source text: (§1) FIG. 4. Action potentials and chronotropic responses. […] C.
(§2) Ventricular-like action potentials predominated (28 out of 33; table 2) but atrial-like (n=2), pacemaker-like (n=1) and vascular smooth muscle like-cells (n=2) were also found. In areas in which the cells were not beating but had adopted morphologies indistinguishable from beating areas (FIG. 1F), current injection was sufficient to induce repeated action potentials and sustained synchronous rhythmic contractions. Transcripts for MLC-2v were also detected by RTPCR in non-beating, myocyte-like areas (not shown); scoring beating muscle may thus underestimate the number of cardiomyocytes present in culture. […] The effects of phenylephrine, isoprenaline and carbachol on cultured dissociated hES cardiomyocytes were tested and compared to cultured human fetal ventricular cells (FIG. 4B). […] Similar effects were reported in mES derived cardiomyocytes 21 and mouse fetal cells (22).

[2] = tested on: hES derived cardiomyocytes; experiment: Chronotropic response (beating rate) of dissociated hES-derived cardiomyocytes; assay type: cell-based, human; settings: cultured dissociated hES cardiomyocytes
Source text: as §1
Co-cultures were initiated as for END-2 cells.
as §2

SMILES | effect on beating rate [1] | effect on beating rate [2]
C[N+](C)(C)CCOC(N)=O [Carbachol] | decreased the beating rate | decreased the beating rate
CC(C)NCC(O)c1ccc(O)c(O)c1 (stereo not drawn) [isoprenaline] | increase | increase
CNC[C@H](O)c1cccc(O)c1 [phenylephrine] | increase | increase
